Series [1] deals with PKC. In words: Inhibition of PKC activity. In kind it is biochemical. Conditions: relative to tamoxifen.
Series [2] in a line: Therapeutic index comparison. Conditions: as compared to divalproex sodium.
Series [3] deals with PKC. Conditions: cited from earlier work.
The conditions of series [4]: in human; cited from earlier work.

The structures appear in SMILES notation.

Take `CC/C(=C(\c1ccc(O)cc1)c1ccc(OCCNC)cc1)c1ccccc1.O=C(O)CC(O)(CC(=O)O)C(=O)O` [Endoxifen, (Z)-1-(4-Hydroxyphenyl)-1-{4-[2-(monomethylamino)ethoxy]phenyl}-2-phenyl-1-butene citrate]: in the series with PKC [1], the “potency in inhibiting the PKC activity compared to tamoxifen” value was “four-fold higher potency”. The therapeutic index result in series [2] is given as “broad therapeutic index”.

Take `CC/C(=C(\c1ccccc1)c1ccc(OCCN(C)C)cc1)c1ccccc1` [Tamoxifen]: in the series with PKC [3], the PKC inhibition entry is given as “known to inhibit PKC”. For the same compound, in series [4], the antimanic properties entry is recorded as “demonstrate antimanic properties in human”.

Source of the values: patent US12245997B2, “Endoxifen for the treatment of bipolar I disorder” (priority 2020, dated 2025).
